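A five-concentration, 48-hour dose response in 96-well plates underlies each endpoint, interpolated linearly between surrounding concentrations. The concentration for 50% growth inhibition is given as GI50.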 Active and inactive are the calls of the source. Rule as the data show it: active = GI50 up to about 1.1 µM and inactive = higher.
Columns and labels:
Assay in all cases: NCI-60 cell line screen, 48 h
[1] = test system: LXFL 529
[2] = test system: NCI-H460
[3] = test system: HL-60
[4] = test system: IGROV-1
[5] = test system: OVCAR-8
[6] = test system: M19-MEL
[7] = test system: HOP-92
[8] = test system: SNB-19
[9] = test system: K562
[10] = test system: SK-MEL-28
[11] = test system: HT-29
[12] = test system: SK-OV-3
[13] = test system: EKVX
[14] = test system: M14
[15] = test system: A549
[16] = test system: SNB-75
[17] = test system: RXF 393
[18] = test system: SR
[19] = test system: MCF7
[20] = test system: DU-145

Measured: GI50

CCOC(=O)C12CN(C34CC5CC(CC(C5)C3)C4)CC(C(=O)OCC)(C1=O)C(c1ccccc1)OC2c1ccccc1 (centres undefined)
inactive: [1] 31.3 µM | [2] > 100 µM | [3] 9.25 µM | [4] > 100 µM | [5] > 100 µM | [6] > 100 µM | [7] 2.04 µM | [8] > 100 µM | [9] 31.4 µM | [10] > 100 µM | [11] 61 µM | [12] > 100 µM | [13] > 100 µM | [14] > 100 µM | [15] > 100 µM | [16] 39.7 µM | [17] 19.4 µM

CCOC(=O)C(C(CC(=O)OC)NC(=O)OCc1ccccc1)C1(C)OCCO1 (centres undefined)
inactive: [1] > 100 µM | [2] > 100 µM | [3] > 100 µM | [4] > 100 µM | [5] > 100 µM | [8] > 100 µM | [9] > 100 µM | [10] > 100 µM | [11] > 100 µM | [13] > 100 µM | [14] > 100 µM | [15] > 100 µM | [16] 41.1 µM | [17] > 100 µM | [18] > 100 µM

CCCCN(CCCC)C(=Nc1ccccc1)N(CCCC)CCCC
inactive: [1] 5.36 µM | [2] 3.34 µM | [3] 1.79 µM | [4] 3.15 µM | [5] 9.25 µM | [6] 8.39 µM | [7] 1.62 µM | [8] 6.81 µM | [9] 2.09 µM | [10] 3.1 µM | [11] 2.36 µM | [12] 8.43 µM | [13] 4.35 µM | [15] 7.62 µM | [16] 16.4 µM | [17] 5.02 µM

Cc1c(-c2coc(-c3ccc([N+](=O)[O-])cc3)n2)c(=O)n(-c2ccccc2)n1C
inactive: [1] > 100 µM | [2] > 100 µM | [3] > 100 µM | [4] > 100 µM | [5] > 100 µM | [6] > 100 µM | [7] > 100 µM | [10] > 100 µM | [11] > 100 µM | [12] > 100 µM | [13] > 100 µM | [14] > 100 µM | [15] > 100 µM | [16] > 100 µM

O=C(c1ccccc1)C1S(=O)(=O)OCCOS1(=O)=O
inactive: [1] > 100 µM | [3] > 100 µM | [4] > 100 µM | [5] > 100 µM | [6] > 100 µM | [7] > 100 µM | [8] > 100 µM | [9] > 100 µM | [10] > 100 µM | [11] > 100 µM | [12] > 100 µM | [13] > 100 µM | [14] > 100 µM | [15] > 100 µM | [16] > 100 µM | [18] > 100 µM

Cc1ccc(NC(=O)OCC(COc2ccc(Cl)cc2Cl)OC(=O)Nc2ccc(C)cc2)cc1 (centres undefined)
inactive: [1] 81.5 µM | [2] > 100 µM | [4] > 100 µM | [5] 12.5 µM | [6] > 100 µM | [7] 53.7 µM | [8] 47.6 µM | [10] > 100 µM | [11] > 100 µM | [12] > 100 µM | [13] > 100 µM | [14] > 100 µM | [15] > 100 µM | [16] 27 µM | [17] 79.4 µM

CC(=O)OCCOCBr
inactive: [1] > 100 µM | [2] > 100 µM | [3] > 100 µM | [4] > 100 µM | [5] > 100 µM | [6] > 100 µM | [7] > 100 µM | [9] > 100 µM | [10] > 100 µM | [11] > 100 µM | [12] > 100 µM | [13] > 100 µM | [14] > 100 µM | [15] > 100 µM | [16] > 100 µM | [17] > 100 µM

CCOC(=O)CC(=O)Sc1ccccc1
inactive: [2] 24.7 µM | [3] 13.4 µM | [4] 12.5 µM | [5] 16.9 µM | [6] 17.9 µM | [7] 27.5 µM | [8] 28.2 µM | [9] 19.4 µM | [10] 14.6 µM | [11] 22.7 µM | [12] 24.5 µM | [13] 19 µM | [14] 14.2 µM | [15] 14.6 µM | [17] 10.3 µM | [18] 14.1 µM

COc1ccccc1NC(=O)CC(=O)n1nc(C)c(/N=N/c2ccccc2C(=O)O)c1C
inactive: [1] > 100 µM | [2] > 100 µM | [3] > 100 µM | [4] > 100 µM | [5] > 100 µM | [6] > 100 µM | [8] > 100 µM | [9] 97.1 µM | [10] > 100 µM | [11] > 100 µM | [12] > 100 µM | [13] 29.6 µM | [14] > 100 µM | [15] > 100 µM | [16] 32.1 µM

CC(=O)OCCC(O[Si](c1ccccc1)(c1ccccc1)C(C)(C)C)C(C)(C)O (centres undefined)
inactive: [1] 42.7 µM | [2] 32.1 µM | [4] 36.3 µM | [5] 38.9 µM | [6] 23.1 µM | [7] 24.6 µM | [8] 63.1 µM | [9] 31.6 µM | [10] 51.2 µM | [11] 27.4 µM | [12] 42.7 µM | [13] 48.4 µM | [14] 39 µM | [15] 34.5 µM | [16] 35.6 µM | [17] 17.6 µM

O=C(O)CCCN/C(=C1\C(=O)C(=O)N(c2ccccc2)C1=O)c1ccccc1
inactive: [19] > 100 µM | [2] > 100 µM | [3] > 100 µM | [4] > 100 µM | [5] > 100 µM | [7] > 100 µM | [8] > 100 µM | [9] > 100 µM | [10] > 100 µM | [11] > 100 µM | [12] > 100 µM | [20] > 100 µM | [13] > 100 µM | [14] > 100 µM | [15] > 100 µM | [16] > 100 µM | [17] > 100 µM | [18] 20 µM

COC(=O)c1nc(NC#N)nc(O)c1C
inactive: [1] > 64.9 µM | [2] > 100 µM | [3] > 100 µM | [4] > 72.9 µM | [5] > 100 µM | [6] > 100 µM | [7] 50.2 µM | [8] > 67.9 µM | [9] 34.9 µM | [10] > 100 µM | [11] > 100 µM | [12] > 100 µM | [13] > 100 µM | [14] > 100 µM | [15] > 89.5 µM | [16] > 53.3 µM | [17] > 100 µM

N#CC(C(=O)CCC(=O)Nc1ccc(Cl)c(Cl)c1)c1ccc(Cl)cc1 (centres undefined)
inactive: [1] 21.3 µM | [2] > 100 µM | [3] 83.9 µM | [4] 80 µM | [5] > 100 µM | [6] 82.2 µM | [7] 80.9 µM | [8] > 100 µM | [9] 14.6 µM | [10] > 100 µM | [11] > 100 µM | [13] > 100 µM | [14] 51.4 µM | [15] 84.9 µM | [16] 51.1 µM | [17] > 100 µM

CCOc1ccc(NC(=O)C2=C(C)NC(C)=C(C(=O)Nc3ccc(OCC)cc3)C2c2ccc([N+](=O)[O-])cc2)cc1
inactive: [1] 22.1 µM | [2] 22.9 µM | [3] 18.3 µM | [4] 49 µM | [5] 35 µM | [6] 26.2 µM | [7] 12.9 µM | [8] 36 µM | [9] 23.3 µM | [10] 34.2 µM | [11] 33.9 µM | [12] > 100 µM | [13] 29 µM | [14] 23.7 µM | [15] 17.9 µM | [16] 29.4 µM | [17] 14 µM

O=C(Nc1ccccc1-c1nn(C(=S)Nc2ccccc2)c(=S)n(C(=S)Nc2ccccc2)c1=O)C(F)(F)F
inactive: [1] 17.1 µM | [2] 21.3 µM | [3] 20.9 µM | [4] 21.5 µM | [5] 23.9 µM | [6] 28.2 µM | [7] 12.8 µM | [8] 35.4 µM | [9] 18.8 µM | [10] 27.6 µM | [11] 27.7 µM | [12] > 87.3 µM | [13] 27.6 µM | [14] 20.4 µM | [15] 24.4 µM | [16] 31.1 µM | [17] 34 µM

O=C1C2CCC(C2)C12CC1(c3ccccc3)C(=O)c3ccccc3N1O2 (centres undefined)
inactive: [1] > 100 µM | [3] 42.1 µM | [4] > 100 µM | [5] > 100 µM | [6] > 100 µM | [7] 42.7 µM | [8] > 100 µM | [9] > 100 µM | [10] > 100 µM | [11] > 100 µM | [12] > 100 µM | [13] > 100 µM | [14] > 100 µM | [15] > 100 µM | [16] > 100 µM | [17] > 100 µM | [18] 67.5 µM

CC/C=C/c1cc2cc[nH]c2c2c1C(C)C[C@@H]2C (some centres undefined)
inactive: [1] 18.3 µM | [2] 25.1 µM | [3] 26.7 µM | [4] 40.4 µM | [5] 26.1 µM | [6] 27.5 µM | [7] 24.2 µM | [9] 25.1 µM | [10] 22.8 µM | [11] 28.6 µM | [12] 63.8 µM | [13] 43.2 µM | [14] 28.1 µM | [15] 35.9 µM | [16] 27.4 µM | [17] 17.7 µM

From ChEMBL document CHEMBL1201862, “PubChem BioAssay data set” (2004)
